According to PubChem BioAssay AID1996:
In brackets after ≈: the same amount, converted by molar mass.

Conditions: buffer; pH 7.4; 200.0 µM

| Structure (SMILES) | solubility kinetic [µg/mL] |
| --- | --- |
| COc1cc(Cl)c(C)cc1NC(=O)CN(C)C1CCS(=O)(=O)C1 (stereo not given) | > 54.1 |
| CCOc1ccc(N2C(=O)CSC2=NC#N)cc1 | 38.3 (≈ 147 µM) |
| Cl.OC(CNCc1ccccc1)COCc1ccc(Cl)cc1 (stereo not given) | 34.2 |
| CC(C)(C)c1ccc(-c2noc(-c3ccno3)n2)cc1 | < 0.2 |
| O=C(COc1ccc(Cl)c2cccnc12)N1CCOCC1 | 42.5 (≈ 139 µM) |
| COC(=O)CNC(=O)COC(=O)/C=C/c1ccccc1[N+](=O)[O-] | 41.3 (≈ 128 µM) |
| CCOC(=O)N1CCN(C(=O)c2c(N)no[n+]2[O-])CC1 | > 42.8 |
| COc1cc2c(cc1OC)C(c1cccc(Cl)c1)CC(=O)N2 (stereo not given) | 38 (≈ 120 µM) |
| COc1cccc2cc(/C(=N/O)c3ccc(Br)cc3)oc12 | < 0.7 |
| Cc1cc(C)cc(N2CC(C(=O)NC3CCCCC3)CC2=O)c1 (stereo not given) | 11.4 (≈ 36.3 µM) |
| Nc1nc2c(s1)COc1ccccc1-2 | > 30.6 |
| NS(=O)(=O)c1ccc(NC(=O)c2ccc(OCC3CCCO3)cc2)cc1 (stereo not given) | 13 (≈ 34.5 µM) |
| NC12CC3CC(C1)CC(CC(=O)O)(C3)C2 | 23.6 (≈ 113 µM) |
| CCCCc1nnc(NC(=O)COC)s1 | > 34.4 |
| COc1ccc(Cl)cc1NS(=O)(=O)N1CCOCC1 | > 46 |
| CC(C)(CC(=O)O)CC(=O)Nc1cc(C(F)(F)F)cc(C(F)(F)F)c1 | 46.1 (≈ 124 µM) |
| CC1=Nc2cc([N+](=O)[O-])ccc2NC(C)(C)C1 | 17 (≈ 72.9 µM) |

| Structure (SMILES) | solubility kinetic [µg/mL] |
| --- | --- |
| CCN(CC)c1ccc(NC(=O)c2ccc3c(c2)OCO3)cc1 | 6.4 (≈ 20.5 µM) |
| CCN(CC)CCCNc1ncnc2ccccc12.Cl | 42.3 |
| NC(=O)c1ccc(NC(=O)COC(=O)c2cc3ccccc3cc2O)cc1 | 10.1 (≈ 27.7 µM) |
| CCCc1nc2c(sc3nc4c(cc32)COC(C)(C)C4)c(=O)o1 | 24.1 (≈ 72.9 µM) |
| Cc1noc(C)c1C(=O)OCC(=O)Nc1c(F)cccc1F | 24 (≈ 77.4 µM) |
| COc1ccc(NS(=O)(=O)c2ccc3[nH]c(=O)[nH]c3c2)cc1OC | > 52.4 |
| CC(=O)c1c(C)nc(Nc2nc3ccccc3s2)nc1C | 0.2 (≈ 0.67 µM) |
| CC(=O)N1CCN(S(=O)(=O)c2ccc(F)c(Cl)c2)CC1 | > 48.1 |
| CSCc1ccc(C(=O)OCc2nc3ccccc3s2)o1 | 13.3 (≈ 41.6 µM) |
| CC(OC(=O)c1nsc(Cl)c1Cl)C(=O)NC1CCCCC1 (stereo not given) | 31.6 (≈ 90 µM) |
| O=C(NC1CCCCC1)C(=S)N1CCCC1 | > 36.1 |
| O=C(NC1CCCC1)C1CCCN(S(=O)(=O)c2ccc(F)cc2)C1 (stereo not given) | 3.4 (≈ 9.59 µM) |
| COc1ccccc1CCNS(=O)(=O)c1ccc(C(=O)O)n1C | > 50.8 |
| CCC(C)c1ccc(NC(=O)Nc2cnccn2)cc1 (stereo not given) | 1.3 (≈ 4.81 µM) |
| NS(=O)(=O)c1cccc(NS(=O)(=O)c2cccc(C(F)(F)F)c2)c1 | > 57.1 |
| Cc1cccc(NC(=O)CN2C(=O)NC3(CCCCCCC3)C2=O)c1C | 49 (≈ 137 µM) |
| CCN(CC)C(=O)c1cc2c(=O)n3cccc(C)c3nc2s1 | 43.4 (≈ 138 µM) |

The next lines start with the values.

| solubility kinetic [µg/mL] | Structure (SMILES) |
| --- | --- |
| 36.6 (≈ 138 µM) | CC(=O)c1ccc(N=C2C(=O)Nc3ccccc32)cc1 |
| > 49.2 | N#CC1(Nc2cccc(Br)c2)C(=O)Nc2ccccc21 (stereo not given) |
| 25.1 (≈ 84.1 µM) | Oc1ccccc1-c1nc2ccccc2nc1-c1ccccc1 |
| > 69.1 | CCOC(=O)[C@H](CCc1ccccc1)N[C@H]1CCc2ccccc2N(CC(=O)O)C1=O.Cl |
| 18.9 (≈ 55.7 µM) | O=S(=O)(c1cc(F)ccc1F)N1CCN(c2ccccn2)CC1 |
| > 32.3 | CC1(C)CC(=O)C=C(Nc2ccccc2)C1 |
| 40.7 (≈ 145 µM) | Cc1cccc(Oc2ccc3c(c2)cc(C(=O)O)n3C)c1 |
| 3.8 (≈ 12.2 µM) | Cc1cc(C)c(C#N)c(N2CCN(c3ccccc3F)CC2)n1 |
| 15.8 (≈ 53.5 µM) | COc1ccc(CC(=O)NC2CCCc3ccccc32)cc1 (stereo not given) |
| 28.5 (≈ 94.6 µM) | CN(CCOc1ccccc1)CC(O)COc1ccccc1 (stereo not given) |
| 51 (≈ 127 µM) | O=C1N/C(=N/S(=O)(=O)Cc2ccccc2)S/C1=C/c1ccc2c(c1)OCO2 |
| 10.1 (≈ 28.2 µM) | Oc1ccc2ccccc2c1CN1CCN(C/C=C/c2ccccc2)CC1 |
| > 51 | O=C(O)CC1(CC(=O)Nc2ccccc2Br)CCCC1 |
| 25.6 | C(#Cc1ccccc1)CN1CCCCC1.Cl |
| 35.6 (≈ 124 µM) | COC(=O)c1cc(-n2cccc2)ccc1N1CCOCC1 |
| 47.9 (≈ 143 µM) | CCc1nc2ccccc2c(C(=O)NCc2ccc(OC)cc2)c1C |
| > 52.6 | CN1CCc2c(OCC(=O)N3CCCc4ccccc43)cccc2C1=O |
| > 39.3 | Cc1c(C(=O)N2CCC(C)CC2)cccc1[N+](=O)[O-] |
| 59.2 (≈ 149 µM) | O=C(c1ccc(F)cc1)N1CCC(C(=O)N2CCN(c3ncccn3)CC2)CC1 |
| > 42.9 | COc1ccc2[nH]cc(C(=O)C(=O)N3CCCCC3)c2c1 |
| > 46.8 | N#Cc1ccc(C(=O)NN2C(=O)NC3(CCCCC3)C2=O)cc1 |
| 25.9 (≈ 88.9 µM) | Cn1c(SCCc2ccc([N+](=O)[O-])cc2)nccc1=O |
| 46.7 (≈ 139 µM) | O=c1c([N+](=O)[O-])c(N2CCCC2)c2ccccc2n1-c1ccccc1 |
| 35.8 (≈ 102 µM) | O=S(=O)(Nc1ccccc1Cl)c1ccc(-c2ccccn2)s1 |
| 0.8 (≈ 2.77 µM) | O=C(Nc1ccncc1)c1sc2ccccc2c1Cl |
| > 52.4 | CC(=O)Nc1ccc(NS(=O)(=O)c2ccc(C)cc2)c([N+](=O)[O-])c1 |
